# Assay results as given in ChEMBL document CHEMBL1201862, “PubChem BioAssay data set” (2004).
#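 Tested at 5 concentrations; 48 h exposure; 96-well plates; endpoints linearly interpolated, else capped at highest concentration. The concentration for 50% growth inhibition is given as GI50.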 Activity calls are given as the source filed them. Cut-off read from the data, not from the text of the source: active = GI50 up to about 1.1 µM and inactive = higher.
# How the values were obtained:
# Assay in all cases: NCI-60 cell line screen, 48 h
# RXF 393 = tested on: RXF 393
# M14 = tested on: M14
# SF-295 = tested on: SF-295
# SNB-75 = tested on: SNB-75
# BT-549 = tested on: BT-549
# HCT-116 = tested on: HCT-116
# SK-MEL-5 = tested on: SK-MEL-5
# RPMI-8226 = tested on: RPMI-8226
# LOX IMVI = tested on: LOX IMVI
# COLO 205 = tested on: COLO 205
# SK-MEL-2 = tested on: SK-MEL-2
# CAKI-1 = tested on: CAKI-1
# A549 = tested on: A549
# SK-MEL-28 = tested on: SK-MEL-28
# CCRF-CEM = tested on: CCRF-CEM
# DU-145 = tested on: DU-145
# MDA-MB-435 = tested on: MDA-MB-435
# HT-29 = tested on: HT-29
# EKVX = tested on: EKVX
# A498 = tested on: A498
# HOP-92 = tested on: HOP-92
# HCC 2998 = tested on: HCC 2998
# MCF7 = tested on: MCF7
# NCI/ADR-RES = tested on: NCI/ADR-RES
# UACC-257 = tested on: UACC-257
# HCT-15 = tested on: HCT-15
# OVCAR-4 = tested on: OVCAR-4
# NCI-H226 = tested on: NCI-H226
# OVCAR-8 = tested on: OVCAR-8
# KM12 = tested on: KM12
# HOP-62 = tested on: HOP-62
# IGROV-1 = tested on: IGROV-1
# UACC-62 = tested on: UACC-62
# K562 = tested on: K562
# SF-268 = tested on: SF-268
# OVCAR-3 = tested on: OVCAR-3
# T47D = tested on: T47D
# PC-3 = tested on: PC-3
# NCI-H23 = tested on: NCI-H23
# SK-OV-3 = tested on: SK-OV-3
# Malme-3M = tested on: Malme-3M
# 786-0 = tested on: 786-0
# SF-539 = tested on: SF-539
# SW-620 = tested on: SW-620
# SN12C = tested on: SN12C
# MDA-MB-231 = tested on: MDA-MB-231
# U-251 = tested on: U-251
# TK-10 = tested on: TK-10
# NCI-H460 = tested on: NCI-H460
# MOLT-4 = tested on: MOLT-4
# MDA-N = tested on: MDA-N
# OVCAR-5 = tested on: OVCAR-5
# SNB-19 = tested on: SNB-19
# Hs-578T = tested on: Hs-578T
# HL-60 = tested on: HL-60
# ACHN = tested on: ACHN
# NCI-H522 = tested on: NCI-H522
# SR = tested on: SR
# UO-31 = tested on: UO-31
structure (smiles),measurement,setting,value
CCOC(=O)c1nc2cc(C(F)(F)F)ccc2nc1Nc1ccc(F)cc1,GI50,RXF 393,53.5 µM (inactive)
same,GI50,M14,49.4 µM (inactive)
same,GI50,SF-295,47.2 µM (inactive)
same,GI50,SNB-75,58.2 µM (inactive)
same,GI50,BT-549,25.9 µM (inactive)
same,GI50,HCT-116,96.8 µM (inactive)
same,GI50,SK-MEL-5,47.8 µM (inactive)
same,GI50,RPMI-8226,6.21 µM (inactive)
same,GI50,LOX IMVI,> 100 µM (inactive)
same,GI50,COLO 205,97.3 µM (inactive)
same,GI50,SK-MEL-2,> 100 µM (inactive)
same,GI50,CAKI-1,> 100 µM (inactive)
same,GI50,A549,18 µM (inactive)
same,GI50,SK-MEL-28,> 100 µM (inactive)
same,GI50,CCRF-CEM,19.5 µM (inactive)
same,GI50,DU-145,> 100 µM (inactive)
same,GI50,MDA-MB-435,> 100 µM (inactive)
same,GI50,HT-29,97.9 µM (inactive)
same,GI50,EKVX,68.2 µM (inactive)
same,GI50,A498,28.6 µM (inactive)
same,GI50,HOP-92,10.8 µM (inactive)
same,GI50,HCC 2998,19.6 µM (inactive)
same,GI50,MCF7,85.5 µM (inactive)
same,GI50,NCI/ADR-RES,72.1 µM (inactive)
same,GI50,UACC-257,> 100 µM (inactive)
same,GI50,HCT-15,37.4 µM
same,GI50,OVCAR-4,23.6 µM (inactive)
same,GI50,NCI-H226,41.1 µM (inactive)
same,GI50,OVCAR-8,39 µM (inactive)
same,GI50,KM12,> 100 µM (inactive)
same,GI50,HOP-62,96.6 µM (inactive)
same,GI50,IGROV-1,34.8 µM (inactive)
same,GI50,UACC-62,25.5 µM (inactive)
same,GI50,K562,13.3 µM (inactive)
same,GI50,SF-268,> 100 µM (inactive)
same,GI50,OVCAR-3,44.8 µM (inactive)
same,GI50,T47D,> 100 µM (inactive)
same,GI50,PC-3,32.8 µM (inactive)
same,GI50,NCI-H23,74.1 µM (inactive)
same,GI50,SK-OV-3,94.4 µM (inactive)
same,GI50,Malme-3M,> 100 µM (inactive)
same,GI50,786-0,> 100 µM (inactive)
same,GI50,SF-539,19.5 µM (inactive)
same,GI50,SW-620,74.1 µM (inactive)
same,GI50,SN12C,> 100 µM (inactive)
same,GI50,MDA-MB-231,> 100 µM (inactive)
same,GI50,U-251,24.5 µM (inactive)
same,GI50,TK-10,73.5 µM (inactive)
same,GI50,NCI-H460,18.2 µM (inactive)
same,GI50,MOLT-4,> 10 µM (inactive)
same,GI50,MDA-N,> 100 µM (inactive)
same,GI50,OVCAR-5,> 100 µM (inactive)
C/C(=N/NC(=S)N1CCCC1)c1cccc(/C(C)=N\NC(=S)N2CCCC2)n1,GI50,RXF 393,1.32 µM (inactive)
same,GI50,SNB-19,2.57 µM (inactive)
same,GI50,M14,1.25 µM (inactive)
same,GI50,SF-295,0.548 µM (active)
same,GI50,SNB-75,1.21 µM (inactive)
same,GI50,BT-549,2.23 µM (inactive)
same,GI50,HCT-116,1.14 µM (inactive)
same,GI50,SK-MEL-5,1.36 µM (inactive)
same,GI50,RPMI-8226,2.06 µM (inactive)
same,GI50,LOX IMVI,0.0847 µM (active)
same,GI50,Hs-578T,3.49 µM (inactive)
same,GI50,COLO 205,0.785 µM (active)
same,GI50,HL-60,0.453 µM (active)
same,GI50,SK-MEL-2,1.7 µM (inactive)
same,GI50,CAKI-1,1.28 µM (inactive)
same,GI50,A549,1.44 µM (inactive)
same,GI50,SK-MEL-28,1.97 µM (inactive)
same,GI50,CCRF-CEM,0.0667 µM (active)
same,GI50,ACHN,0.791 µM (active)
same,GI50,DU-145,2.61 µM (inactive)
same,GI50,MDA-MB-435,1.43 µM (inactive)
same,GI50,NCI-H522,1.8 µM (inactive)
same,GI50,HT-29,0.0318 µM (active)
same,GI50,EKVX,0.152 µM (active)
same,GI50,A498,1.29 µM (inactive)
same,GI50,HCC 2998,1.21 µM (inactive)
same,GI50,NCI/ADR-RES,1.96 µM (inactive)
same,GI50,HCT-15,0.492 µM
same,GI50,SR,0.0944 µM (active)
same,GI50,NCI-H226,1.62 µM (inactive)
same,GI50,OVCAR-8,1.11 µM (active)
same,GI50,KM12,1.22 µM (inactive)
same,GI50,HOP-62,0.378 µM (active)
same,GI50,IGROV-1,0.881 µM (active)
same,GI50,UACC-62,2.25 µM (inactive)
same,GI50,K562,0.0468 µM (active)
same,GI50,SF-268,1.68 µM (inactive)
same,GI50,OVCAR-3,0.0973 µM (active)
same,GI50,PC-3,0.076 µM (active)
same,GI50,NCI-H23,1.88 µM (inactive)
same,GI50,SK-OV-3,1.46 µM (inactive)
same,GI50,Malme-3M,1.84 µM (inactive)
same,GI50,786-0,1.37 µM (inactive)
same,GI50,SF-539,1.36 µM (inactive)
same,GI50,SW-620,0.267 µM (active)
same,GI50,SN12C,1.14 µM (inactive)
same,GI50,MDA-MB-231,0.046 µM (active)
same,GI50,U-251,1.5 µM (inactive)
same,GI50,TK-10,1.39 µM (inactive)
same,GI50,NCI-H460,1.06 µM (active)
same,GI50,MOLT-4,0.0412 µM (active)
same,GI50,UO-31,0.766 µM (active)
same,GI50,MDA-N,1.38 µM (inactive)
same,GI50,OVCAR-5,1.7 µM (inactive)
CC(=O)C1C(=O)C(=O)N(c2ccc([N+](=O)[O-])cc2)C1=O (centres undefined),GI50,RXF 393,> 100 µM (inactive)
same,GI50,SNB-19,> 100 µM (inactive)
same,GI50,M14,> 100 µM (inactive)
same,GI50,SF-295,> 100 µM (inactive)
same,GI50,SNB-75,> 100 µM (inactive)
same,GI50,BT-549,> 100 µM (inactive)
same,GI50,HCT-116,> 100 µM (inactive)
same,GI50,SK-MEL-5,> 100 µM (inactive)
same,GI50,LOX IMVI,> 100 µM (inactive)
same,GI50,Hs-578T,> 100 µM (inactive)
same,GI50,COLO 205,> 100 µM (inactive)
same,GI50,HL-60,> 100 µM (inactive)
same,GI50,SK-MEL-2,66.2 µM (inactive)
same,GI50,CAKI-1,> 100 µM (inactive)
same,GI50,A549,80.4 µM (inactive)
same,GI50,SK-MEL-28,> 100 µM (inactive)
same,GI50,CCRF-CEM,> 100 µM (inactive)
same,GI50,ACHN,> 100 µM (inactive)
same,GI50,DU-145,> 100 µM (inactive)
same,GI50,MDA-MB-435,> 100 µM (inactive)
same,GI50,NCI-H522,> 100 µM (inactive)
same,GI50,HT-29,> 100 µM (inactive)
same,GI50,EKVX,> 100 µM (inactive)
same,GI50,HOP-92,> 100 µM (inactive)
same,GI50,HCC 2998,> 100 µM (inactive)
same,GI50,MCF7,> 100 µM (inactive)
same,GI50,NCI/ADR-RES,> 100 µM (inactive)
same,GI50,UACC-257,> 100 µM (inactive)
same,GI50,HCT-15,> 100 µM
same,GI50,OVCAR-4,> 100 µM (inactive)
same,GI50,NCI-H226,> 100 µM (inactive)
same,GI50,OVCAR-8,> 100 µM (inactive)
same,GI50,KM12,> 100 µM (inactive)
same,GI50,HOP-62,> 100 µM (inactive)
same,GI50,IGROV-1,> 100 µM (inactive)
same,GI50,UACC-62,> 100 µM (inactive)
same,GI50,SF-268,> 100 µM (inactive)
same,GI50,OVCAR-3,> 100 µM (inactive)
same,GI50,PC-3,52.7 µM (inactive)
same,GI50,NCI-H23,> 100 µM (inactive)
same,GI50,SK-OV-3,> 100 µM (inactive)
same,GI50,786-0,> 100 µM (inactive)
same,GI50,SF-539,> 100 µM (inactive)
same,GI50,SW-620,> 100 µM (inactive)
same,GI50,SN12C,> 100 µM (inactive)
same,GI50,MDA-MB-231,> 100 µM (inactive)
same,GI50,U-251,> 100 µM (inactive)
same,GI50,TK-10,> 100 µM (inactive)
same,GI50,NCI-H460,> 100 µM (inactive)
same,GI50,MOLT-4,> 100 µM (inactive)
same,GI50,UO-31,> 100 µM (inactive)
same,GI50,MDA-N,> 100 µM (inactive)
same,GI50,OVCAR-5,> 100 µM (inactive)
